Test results: article PMC12191924, “A new naphthalene-based fluorogenic substrate for cytochrome P450 4A11” (Biochemical Journal, 2025)
“And” between values parts separate entries of the source, which are not always exact repeats. Identical values can stand only once.

Target: T1, CYP1A2 (Homo sapiens, UniProt P05177)
T1 sequence (P05177 2-516 limits assumed): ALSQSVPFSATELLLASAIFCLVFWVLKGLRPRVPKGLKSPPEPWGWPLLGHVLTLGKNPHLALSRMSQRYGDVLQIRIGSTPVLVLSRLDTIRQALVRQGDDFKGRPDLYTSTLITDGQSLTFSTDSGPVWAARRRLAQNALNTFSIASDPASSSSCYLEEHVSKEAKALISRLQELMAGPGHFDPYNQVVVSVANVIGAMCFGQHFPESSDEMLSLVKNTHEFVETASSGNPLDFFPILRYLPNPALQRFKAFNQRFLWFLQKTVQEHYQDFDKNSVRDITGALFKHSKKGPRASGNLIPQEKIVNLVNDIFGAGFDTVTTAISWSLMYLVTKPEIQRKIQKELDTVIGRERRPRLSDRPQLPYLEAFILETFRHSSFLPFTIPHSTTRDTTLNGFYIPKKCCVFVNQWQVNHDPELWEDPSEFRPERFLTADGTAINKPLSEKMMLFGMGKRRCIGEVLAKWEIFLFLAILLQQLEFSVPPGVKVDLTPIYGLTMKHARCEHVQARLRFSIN
Test: MONACRA demethylation by recombinant CYP1A2 in Supersomes, high-throughput fluorimetric assay
Assay type: biochemical
Design: purchased Gentest (Supersomes), now a part of Discovery Life Sciences; CYP1A2 is not in the lot list; host or cells: insect cells, recombinant baculovirus
Description: Based on these observations, we developed a high-throughput automated assay applicable for studying SSPs of MONACRA metabolism by microsomal P450 enzymes. In this procedure, the incubation mixtures containing an NADPH-generating system and various substrate concentrations are placed in a multiwell plate and preincubated at 30°C in a thermostated shaker. The reaction is started by adding microsomal suspension to the final concentration of 0.3–1 mg/ml of microsomal protein or 0.02–0.1 µM of recombinant P450 enzymes in Supersomes. Following the incubation for 20 min at 30°C, the reaction is quenched by adding trichloroacetic acid (final concentration […]). After supplementing the wells with Na-glycine buffer (pH 10.4, final concentration 2.1 M), the plates are subjected to scanning the fluorescence spectra with excitation at 375 nm. This assay, which is described in detail in Materials and Methods, allows reliable detection of the concentrations of HONACRA as low as 0.1 µM.
We used the high-throughput activity assay described above to probe MONACRA metabolism by 16 human microsomal P450 enzymes, namely CYP1A2, CYP2A6, CYP2B6, CYP2C8, CYP2C9, CYP2C19, CYP2D6, CYP2E1, CYP2J2, CYP3A4, CYP3A5, CYP4A11, CYP4F2, CYP4F3A, CYP4F3B, and CYP4F12. […]

With `COc1ccc2cc(C=CC(=O)O)ccc2c1` [MONACRA, 3-(6-methoxynaphthalen-2-yl)acrylic acid] the Vmax (substrate inhibition equation) was 43.7 ± 5.9 min⁻¹ and the “Ksi (substrate inhibition constant)” value (substrate inhibition equation (eqn 2)) was 650 ± 200 µM and 648 ± 197 µM.
